The source of these data is patent publication US5498624A, “Selected pyrazolyl derivatives” (Monsanto Company, priority 1995, dated 1996).

Type in all cases: in vivo
Experiment [1] concerns Botrytis cinerea. The experiment can be described thus: Vine Grey Mold on Berries (VGM Prot). The note with it: grape berries, inoculated 24 hours after treatment. As to the method: A) Pathogen/Inoculum Production--The grey mold fungus, Botrytis cinerea, is cultured on PDA at 20° C. and 12 hours fluorescent light until the radial growth is slightly less than the plate diameter. A 1×10^6spore/ml suspension in sterile water (0.05% Tween®20) is made by dislodging spores in a flooded plate, filtering out mycelium, and adjusting the concentration.
B) Host Preparation--Thompson or Red Flame seedless table grapes from local grocery stores are used. Grapes are washed first in room temperature soapy water solution (a few drops of detergent per gallon), and then surfaced sterilized in 70% ethanol for one minute, followed by two rinses in sterile water. Berries are chosen which still have stem (pedicel) attached.
1) Experimental compounds--Each of the compounds of the present invention are applied at 200, 50, and 20 ppm. Formulation is generally in 40% acetone, 59.95% water, and 0.05% Tween®20. Replication is 6 berries per treatment. Compound is pipetted onto berries at 1.0 ml/treatment (6 berries) in a sterile petri plate. After drying, each berry is transferred to an individual well in a 12-well tissue culture plate. Formulated materials, such as commercial preparations are generally applied using the formulation only (no acetone or surfactant added).
2) Controls and Standards--Three technical grade commercial standards are used, usually at 200 and 50 ppm; benomyl, iprodione, and vinclozolin. The test controls include a uninoculated, formulation treated set as well as an inoculated, formulation treated set.
D) Inoculation/Incubation--Each berry is inoculated with 0.2 ml of spore suspension, using a sterile pipet. Incubation is in the 12-well culture plates at 20° C., 12 hour photoperiod.
E) Test Execution--One day protectant--Berries are inoculated as described 24 hours after chemical treatment.
F) Evaluation--The test is rated 7-10 days after inoculation. Percent surface area infected with disease is determined for each replicate using the values of 0, 1, 2, 5, 10, 15, 20, 25, etc. through 100%. Treatment means are calculated and percent disease control is determined by the formula "(control mean--treatment mean)*100/control mean". The untreated/inoculated control treatment is used for this calculation. The resultant percent protection or percent disease control values for the compounds of the present invention are as set out in the Table below.

Experiment [2] concerns Erysiphe graminis f. sp. tritici. As to the kind of experiment: Wheat Powdery Mildew Foliar Assay (WPM Prot). As to the method: A) Pathogen/Inoculum Production--Leaf material infected with the wheat powdery mildew fungus, Erysiphe graminis f. sp. tritici, is maintained continuously on wheat seedlings, cv. Caldewell.
(B) Host Propagation, (C) Compound Preparation and (D) Compound Application follow as per Example 1.
(E) Inoculation/Incubation--Inoculation of the test plants takes place 24 hours after compound application. Inoculation is accomplished by gently shaking plants previously infected with the Erysiphe graminis f. sp. tritici fungus over the test plants. This process liberates a cloud of spores which effectively and uniformly fall onto the test plants. After inoculation the plants are returned to the environmental conditions under which they were grown.
(F) Evaluation and (G) Data follow as per Example 1. The percent protection values for the compounds of the present invention are as set out in the Table below.

The test system of experiment [3] is Botrytis cinerea. The experiment can be described thus: Vine Grey Mold on Berries (VGM Cur). The following applies: grape berries, treated 24 hours after inoculation. As to the method: Vine Grey Mold on Berries (VGM Cur)--Assay is as set out above in EXAMPLE 11 except for step E) which is: Test Execution--In the curative test the berries are first inoculated as described, six per petri plate and placed in incubation. After 24 hours, the berries are temporarily removed from incubation, placed into 12-well tissue culture plates (one per well), treated, and then returned to incubation.

Another experiment has as its system Venturia inaequalis. As to the kind of experiment: Apple Scab Foliar Assay (ASC Prot). The following applies: apple seedlings. As to the method:
A) Host Propagation--Apple, var. McIntosh, are collected form trees in the field and stored in a cold room at 4° C. After a minimum of 60 days storage, seed are collected and germinated in vermiculite in 3 inch pots in a growth chamber set at 27° C. day and 23° C. night temperature. When seedlings have emerged and 2-3 true leaves formed, the seedling are transplanted into 4 inch square pots containing a soil medium consisting of commercial potting mix. Seedlings are grown in this medium to the 8-10 leaf stage for use in tests. Before each test, the petiole of the smallest unfolded leaf is marked, with this leaf and the immediate five older leaves sprayed and inoculated in the test. The petiole of the oldest sprayed and inoculated leaf is also marked. The marking facilitates data collection for specific leaves and identification of the application site.
B) Test Compound Preparation--Compounds of the present invention are applied to the upper and lower leaf surfaces of the identified leaves at the rate of 100 and 20 ppm using a DiVilbiss Model 152 hand sprayer. Four plants per treatment are sprayed with 12 mls of spray solution which contains 40% acetone, 59.9% water, and 0.1% Triton B1956. Nova® (myclobutanil) is used as the commercial standard. It is suspended in water and applied at equivalent rates.
C) Pathogen/Inoculum Production--Inoculum from the apple scab pathogen, Venturia inaequalis, is obtained directly by washing conidia off of scab lesions from leaves on apple seedlings or by use of previously collected conidial suspension that has been frozen in a glass vial at -80° C. Conidial suspension concentration is adjusted to approximately 1×10^5 spores/ml by dilution with a solution of 1% v/v V8 juice/water. […]
D) Test Evaluation--Phytotoxicity data, and leaf burning, etc. is collected by treatment at the time of pathogen inoculation and at disease evaluation. Disease is evaluated on day 8-12 by estimating the amount of treated leaf tissue that is covered by apple scab lesions or symptoms. […] The percentage control is calculated as in the above examples.

[4] abbreviates: 20 ppm foliar protectant, * = averaged value.
The mark [5] stands for this setting: 100 ppm foliar protectant, * = averaged value.

Turning to `CC[C@H]1CC[C@@H](c2ccccc2NC(=O)c2cn(C)nc2C(F)F)CC1` [Number 1, 1H-pyrazole-4-carboxamide, 3-(difluoromethyl)-N-[2-(4-ethylcyclohexyl)phenyl]-1-methyl-, cis-], the “VGM Prot percent disease control” value in the experiment on Botrytis cinerea [1] (50 ppm, * = averaged value) came out at 93%; with Botrytis cinerea [1] (200 ppm) it was 99%.

Take `C[C@H]1CCC[C@H](c2ccccc2NC(=O)c2cn(C)nc2C(F)F)C1` (relative stereo) [Number 3, 1H-pyrazole-4-carboxamide, 3-(difluoromethyl)-1-methyl-N-[2-(3-methylcyclohexyl)phenyl]-, trans-]: the results for the “WPM Prot percent disease control” value in experiment [2] (setting [4]) and in experiment [2] (setting [5]) were 77% and 100%, respectively. For the same compound, the “VGM Prot percent disease control” value turned out to be 67% in the experiment with Botrytis cinerea [1] (20 ppm, * = averaged value) and 87% in the experiment on Botrytis cinerea [1] (50 ppm, * = averaged value). In addition, the “VGM Cur percent disease control” value in the experiment on Botrytis cinerea [3] (20 ppm) was 84%; with Botrytis cinerea [3] (50 ppm), 90%. Besides, the “ASC Prot percentage control” value in the experiment with Venturia inaequalis (20 ppm foliar protectant) is 90%.

As for `Cn1cc(C(=O)Nc2ccccc2[C@@H]2CCC[C@@H](C(F)(F)F)C2)c(C(F)F)n1` (relative stereo) [Number 6], the “WPM Prot percent disease control” value in experiment [2] (500 ppm foliar protectant) is 98%.

With `C[C@@H]1CCC[C@H](c2ccccc2NC(=O)c2cn(C)nc2C(F)F)C1` (relative stereo) [Number 2, 1H-pyrazole-4-carboxamide, 3-(difluoromethyl)-1-methyl-N-[2-(-3-methylcyclohexyl)phenyl]-, cis-], the “WPM Prot percent disease control” value is on record as 44% in experiment [2] (setting [4]) and 65% in experiment [2] (setting [5]). For the same compound, the “VGM Prot percent disease control” value with Botrytis cinerea [1] (20 ppm, * = averaged value) was 90%; with Botrytis cinerea [1] (50 ppm, * = averaged value), 93%; in the experiment on Botrytis cinerea [1] (200 ppm), 99%. For the same compound, the “VGM Cur percent disease control” value in the experiment on Botrytis cinerea [3] (20 ppm) worked out at 41%; in the experiment on Botrytis cinerea [3] (50 ppm) it was 82%. In addition, the entries for the “ASC Prot percentage control” value with Venturia inaequalis (20 ppm foliar protectant) and with Venturia inaequalis (100 ppm foliar protectant) were 58% and 99%, respectively.

On to `Cn1cc(C(=O)Nc2ccccc2C2CCC(C)(C)CC2)c(C(F)F)n1` [Number 5, 1H-pyrazole-4-carboxamide, 3-(difluoromethyl)-N-(2-(4,4-dimethylcyclohexyl)phenyl]-1-methyl-], for which the “WPM Prot percent disease control” value in experiment [2] (setting [4]) was 52%; in experiment [2] (setting [5]), 79%; in experiment [2] (500 ppm foliar protectant) it was 92%.

Regarding `Cn1cc(C(=O)Nc2ccccc2[C@H]2CC[C@H](C)CC2)c(C(F)(F)F)n1` [Number 4, 1H-pyrazole-4-carboxamide, 1-methyl-N-[2-(4-methylcyclohexyl)phenyl]-3-(trifluoromethyl)-, trans-], the results for the “WPM Prot percent disease control” value in experiment [2] (setting [4]), in experiment [2] (setting [5]) and in experiment [2] (500 ppm foliar protectant) were 65%, 91% and 100%, respectively. For the same compound, the “VGM Prot percent disease control” value stood at 41% in the experiment with Botrytis cinerea [1] (20 ppm, * = averaged value) and 67% with Botrytis cinerea [1] (50 ppm, * = averaged value). Further, the “VGM Cur percent disease control” value came to 19% with Botrytis cinerea [3] (20 ppm) and 69% in the experiment on Botrytis cinerea [3] (50 ppm).
